Source: patent US20240382483A1, “HETEROCYCLIC EGFR INHIBITORS FOR USE IN THE TREATMENT OF CANCER” (Blueprint Medicines Corporation, priority 2021, published 2024)
Where two headings read alike, the source gives them in different places.

Tests used:
[1] = target: T1, intracellular phosphorylation of EGFR in NCI-H1975 cell line that harbors the EGFR L858R T790M mutations (Homo sapiens, UniProt P00533, L858R/T790M); assay: NCI-H1975 pEGFR AlphaLISA assay; format: cell-based; conditions: NCI-H1975 cells (EGFR L858R T790M), p-EGFR (Tyr1068), 4-5 hours incubation; read-out: Ext pEGFR H1975 GMean IC50 (nM) Protocol: @Pharmaron AlphaLISA (Num)
T1 construct: NCI-H1975 cell line that harbors the EGFR L858R T790M mutations (ATCC, CRL-5908); host or cells: NCI-H1975
T1 sequence (P00533 25-1210 T790M/L858R): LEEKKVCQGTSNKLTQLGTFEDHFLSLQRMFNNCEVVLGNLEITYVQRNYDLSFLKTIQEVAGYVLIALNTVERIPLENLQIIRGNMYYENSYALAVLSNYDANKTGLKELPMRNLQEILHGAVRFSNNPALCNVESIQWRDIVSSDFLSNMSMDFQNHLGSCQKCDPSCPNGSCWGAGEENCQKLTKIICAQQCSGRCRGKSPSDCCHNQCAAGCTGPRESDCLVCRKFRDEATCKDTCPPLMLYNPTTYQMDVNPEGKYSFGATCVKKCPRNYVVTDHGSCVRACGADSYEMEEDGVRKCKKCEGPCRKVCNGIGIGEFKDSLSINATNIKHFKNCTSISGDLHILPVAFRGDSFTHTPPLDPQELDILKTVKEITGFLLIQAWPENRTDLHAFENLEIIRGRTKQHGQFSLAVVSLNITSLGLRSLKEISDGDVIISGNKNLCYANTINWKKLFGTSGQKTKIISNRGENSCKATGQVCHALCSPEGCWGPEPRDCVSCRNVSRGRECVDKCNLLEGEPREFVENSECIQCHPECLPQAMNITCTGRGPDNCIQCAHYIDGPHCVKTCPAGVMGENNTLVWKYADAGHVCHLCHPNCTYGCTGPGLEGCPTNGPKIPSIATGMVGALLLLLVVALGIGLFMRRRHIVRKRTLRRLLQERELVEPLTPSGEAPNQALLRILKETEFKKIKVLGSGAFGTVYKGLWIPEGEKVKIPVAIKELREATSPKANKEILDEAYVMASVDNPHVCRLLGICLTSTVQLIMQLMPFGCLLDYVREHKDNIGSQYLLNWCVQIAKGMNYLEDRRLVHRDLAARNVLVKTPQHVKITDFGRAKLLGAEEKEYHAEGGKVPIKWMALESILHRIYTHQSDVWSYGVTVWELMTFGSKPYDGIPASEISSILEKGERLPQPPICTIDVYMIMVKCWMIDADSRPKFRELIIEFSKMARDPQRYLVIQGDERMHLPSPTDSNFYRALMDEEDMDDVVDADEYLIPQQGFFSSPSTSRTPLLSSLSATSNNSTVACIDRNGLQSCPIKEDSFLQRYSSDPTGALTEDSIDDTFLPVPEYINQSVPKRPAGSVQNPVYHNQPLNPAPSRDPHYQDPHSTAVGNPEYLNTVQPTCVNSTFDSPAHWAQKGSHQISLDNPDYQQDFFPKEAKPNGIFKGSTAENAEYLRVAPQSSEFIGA
Procedure: On the next day, the test compounds and DMSO control were added into H1975 cell plate followed by incubation at 37C/5% CO2 for 4-5 hours. […] Then 5 μL of a donor bead mix was added to each well followed by overnight incubation at room temperature in dark. On the next day, the plate was read at a compatible plate reader to obtain pEGFR signal. Percent of pEGFR inhibition was plotted against log concentration of compounds to generate IC50 values.

EGFR (L858R T790M C797S) = target: T2, EGFR (L858R T790M C797S) (Homo sapiens, UniProt P00533, C797S/L858R/T790M); assay: Biochemical EGFR inhibition assay (Caliper mobility shift), EGFR LRTMCS
T2 construct: purchased SignalChem E10-122VG
T2 sequence (P00533 25-1210 T790M/C797S/L858R): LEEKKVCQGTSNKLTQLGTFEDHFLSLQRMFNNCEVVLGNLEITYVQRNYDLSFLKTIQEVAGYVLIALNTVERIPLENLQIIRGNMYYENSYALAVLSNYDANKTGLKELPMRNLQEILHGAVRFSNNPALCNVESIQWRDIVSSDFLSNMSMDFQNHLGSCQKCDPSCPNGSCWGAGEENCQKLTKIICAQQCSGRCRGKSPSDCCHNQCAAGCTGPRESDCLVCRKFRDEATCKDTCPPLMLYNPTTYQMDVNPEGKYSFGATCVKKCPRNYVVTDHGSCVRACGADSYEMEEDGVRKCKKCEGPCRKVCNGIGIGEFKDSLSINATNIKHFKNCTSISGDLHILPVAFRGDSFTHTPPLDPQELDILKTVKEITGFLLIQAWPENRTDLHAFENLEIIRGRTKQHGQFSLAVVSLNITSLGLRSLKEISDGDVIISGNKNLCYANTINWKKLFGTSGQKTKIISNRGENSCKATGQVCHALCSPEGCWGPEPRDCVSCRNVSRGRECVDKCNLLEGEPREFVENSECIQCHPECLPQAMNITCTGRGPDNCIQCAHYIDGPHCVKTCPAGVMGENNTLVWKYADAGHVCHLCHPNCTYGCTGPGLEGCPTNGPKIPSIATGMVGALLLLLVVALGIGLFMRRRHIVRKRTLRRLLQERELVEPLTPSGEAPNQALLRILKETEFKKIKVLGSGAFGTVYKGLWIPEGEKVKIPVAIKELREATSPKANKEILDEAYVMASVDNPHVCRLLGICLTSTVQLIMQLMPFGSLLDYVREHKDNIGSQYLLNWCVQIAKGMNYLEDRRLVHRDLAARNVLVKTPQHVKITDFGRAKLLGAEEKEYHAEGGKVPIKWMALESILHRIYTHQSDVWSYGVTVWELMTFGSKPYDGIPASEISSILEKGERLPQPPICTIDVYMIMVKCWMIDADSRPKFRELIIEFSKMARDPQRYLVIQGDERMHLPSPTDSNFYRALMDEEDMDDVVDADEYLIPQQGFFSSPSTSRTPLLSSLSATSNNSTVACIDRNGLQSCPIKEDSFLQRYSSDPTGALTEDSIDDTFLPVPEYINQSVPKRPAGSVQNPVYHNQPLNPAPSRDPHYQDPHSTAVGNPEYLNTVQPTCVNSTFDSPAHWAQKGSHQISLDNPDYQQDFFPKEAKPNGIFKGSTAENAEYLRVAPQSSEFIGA
Procedure, shortened: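 Kinase reactions at 25 °C run to 10–20% peptide phosphorylation, stopped with 35 mM EDTA. Phosphorylated product and substrate separated electrophoretically by mobility shift. Apparent IC50 from percent activity versus log compound concentration.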

[2] = LRTMCS (PH) IC50 (nM) @ 1 mM ATP (Num), EGFR LRTMCS mutant

| Compound | IC50 [1] | IC50 (EGFR (L858R T790M C797S); [2]) | IC50 (EGFR (L858R T790M C797S); read-out: LRTMCS (PH) IC50 (nM) @ 1 mM ATP (Num), EGFR LRTMCS mutant) |
| --- | --- | --- | --- |
| [2H]C([2H])([2H])O[C@@H]1CCN(c2nccc(Nc3cc4c(C(C)C)cnc(N5C[C@H](O)[C@H]5C)c4cn3)n2)C[C@@H]1F [Example 139, (2R,3S)-1-(6-((2-((3S,4R)-3-fluoro-4-(methoxy-d3)piperidin-1-yl)pyrimidin-4-yl)amino)-4-isopropyl-2,7-naphthyridin-1-yl)-2-methylazetidin-3-ol] | < 10 nM | < 15 nM |  |
| CC(C)c1cnc(N2C[C@H](O)[C@H]2C)c2cnc(Nc3ccnc(N4CC[C@](C)(O)C(F)(F)C4)n3)cc12 (single isomer, unassigned) [Example 171, (S)-3,3-difluoro-1-(4-((8-((2R,3S)-3-hydroxy-2-methylazetidin-1-yl)-5-isopropyl-2,7-naphthyridin-3-yl)amino)pyrimidin-2-yl)-4-methylpiperidin-4-ol or (R)-3,3-difluoro-1-(4-((8-((2R,3S)-3-hydroxy-2-methylazetidin-1-yl)-5-isopropyl-2,7-naphthyridin-3-yl)amino)pyrimidin-2-yl)-4-methylpiperidin-4-ol] | 30 to 50 nM | < 15 nM |  |
| CC(C)c1ccc(N2C[C@H](n3ccnn3)[C@H]2C)c2cnc(Nc3ccnc(N4CCC(C)(O)CC4)n3)cc12 [Example 129, 1-(4-((5-isopropyl-8-((2R,3S)-2-methyl-3-(1H-1,2,3-triazol-1-yl)azetidin-1-yl)isoquinolin-3-yl)amino)pyrimidin-2-yl)-4-methylpiperidin-4-ol] | 20 to 30 nM | 30 to 100 nM |  |
| CC(C)c1cnc(-c2ncn(C)n2)c2cnc(Nc3ccnc(N4CC[C@@H](O)[C@@](C)(F)C4)n3)cc12 [Example 15, (3S,4R)-3-fluoro-1-(4-((5-isopropyl-8-(1-methyl-1H-1,2,4-triazol-3-yl)-2,7-naphthyridin-3-yl)amino)pyrimidin-2-yl)-3-methylpiperidin-4-ol] | > 50 nM | < 15 nM |  |
| CC(C)c1cnc(N2CC3(CCO3)C2)c2cnc(Nc3ccnc(N4CC[C@@H](O)[C@@](C)(F)C4)n3)cc12 [Example 54, (3S,4R)-3-fluoro-1-(4-((5-isopropyl-8-(1-oxa-6-azaspiro[3.3]heptan-6-yl)-2,7-naphthyridin-3-yl)amino)pyrimidin-2-yl)-3-methylpiperidin-4-ol] | 20 to 30 nM | 15 to 20 nM |  |
| CC(C)c1cnc(N2C[C@H](O)[C@H]2C)c2cnc(Nc3ccnc(N4CC[C@H](O)[C@H](F)C4)n3)cc12 [Example 143, (3R,4S)-3-fluoro-1-(4-((8-((2R,3S)-3-hydroxy-2-methylazetidin-1-yl)-5-isopropyl-2,7-naphthyridin-3-yl)amino)pyrimidin-2-yl)piperidin-4-ol] | 10 to 20 nM | < 15 nM |  |
| CO[C@H]1CCN(c2nccc(Nc3cc4c(C(C)C)cnc(N5CC[C@H]5C)c4cn3)n2)C[C@H]1OCCO (single isomer, unassigned) [Example 167, 2-(((3R,4S)-1-(4-((5-isopropyl-8-((R)-2-methylazetidin-1-yl)-2,7-naphthyridin-3-yl)amino)pyrimidin-2-yl)-4-methoxypiperidin-3-yl)oxy)ethan-1-ol or 2-(((3S,4R)-1-(4-((5-isopropyl-8-((R)-2-methylazetidin-1-yl)-2,7-naphthyridin-3-yl)amino)pyrimidin-2-yl)-4-methoxypiperidin-3-yl)oxy)ethan-1-ol] | < 10 nM | < 15 nM |  |
| CC(C)c1cnc(-c2cn(C)nn2)c2cnc(Nc3ccnc(N4CC[C@@H](O)[C@@](C)(F)C4)n3)cc12 [Example 10, (3S,4R)-3-fluoro-1-(4-((5-isopropyl-8-(1-methyl-1H-1,2,3-triazol-4-yl)-2,7-naphthyridin-3-yl)amino)pyrimidin-2-yl)-3-methylpiperidin-4-ol] | 10 to 20 nM | < 15 nM |  |
| CC(C)c1cnc(-c2ccn(C3COC3)n2)c2cnc(Nc3ccnc(N4CC[C@@H](O)[C@@](C)(F)C4)n3)cc12 [Example 21, (3S,4R)-3-fluoro-1-(4-((5-isopropyl-8-(1-(oxetan-3-yl)-1H-pyrazol-3-yl)-2,7-naphthyridin-3-yl)amino)pyrimidin-2-yl)-3-methylpiperidin-4-ol] | > 50 nM | < 15 nM |  |
| CO[C@@H]1CCN(c2nccc(Nc3cc4c(C(C)C)cnc(N5CC(O)C5)c4cn3)n2)C[C@@H]1F [Example 147, 1-(6-((2-((3S,4R)-3-fluoro-4-methoxypiperidin-1-yl)pyrimidin-4-yl)amino)-4-isopropyl-2,7-naphthyridin-1-yl)azetidin-3-ol] | 20 to 30 nM | < 15 nM |  |
| CC(C)c1ncc(-c2cn(C)nn2)c2cnc(Nc3ccnc(N4CC[C@@H](O)[C@@](C)(F)C4)n3)cc12 [Example 12, (3S,4R)-3-fluoro-1-(4-((5-isopropyl-8-(1-methyl-1H-1,2,3-triazol-4-yl)-2,6-naphthyridin-3-yl)amino)pyrimidin-2-yl)-3-methylpiperidin-4-ol] | 10 to 20 nM | < 15 nM |  |

Further lines, results first:

| IC50 [1] | IC50 (EGFR (L858R T790M C797S); [2]) | IC50 (EGFR (L858R T790M C797S); read-out: LRTMCS (PH) IC50 (nM) @ 1 mM ATP (Num), EGFR LRTMCS mutant) | Compound |
| --- | --- | --- | --- |
| 30 to 50 nM | < 15 nM |  | CC(C)c1cnc(N2C[C@H](O)[C@H]2C)c2cnc(Nc3ccnc(N4CC[C@@H](O)C5(CC5)C4)n3)cc12 (single isomer, unassigned) [Example 169, (R)-5-(4-((8-((2R,3S)-3-hydroxy-2-methylazetidin-1-yl)-5-isopropyl-2,7-naphthyridin-3-yl)amino)pyrimidin-2-yl)-5-azaspiro[2.5]octan-8-ol or (S)-5-(4-((8-((2R,3S)-3-hydroxy-2-methylazetidin-1-yl)-5-isopropyl-2,7-naphthyridin-3-yl)amino)pyrimidin-2-yl)-5-azaspiro[2.5]octan-8-ol] |
| 20 to 30 nM | < 15 nM |  | COC1CN(c2ncc(C(C)C)c3cc(Nc4ccnc(N5CC[C@@H](O)[C@@](C)(F)C5)n4)ncc23)C1 [Example 51, (3S,4R)-3-fluoro-1-(4-((5-isopropyl-8-(3-methoxyazetidin-1-yl)-2,7-naphthyridin-3-yl)amino)pyrimidin-2-yl)-3-methylpiperidin-4-ol] |
| 30 to 50 nM | < 15 nM |  | CC(C)c1cnc(N2C[C@H](O)[C@H]2C)c2cnc(Nc3ccnc(N4CC[C@@H](O)C(C)(C)C4)n3)cc12 (single isomer, unassigned) [Example 168, (R)-1-(4-((8-((2R,3S)-3-hydroxy-2-methylazetidin-1-yl)-5-isopropyl-2,7-naphthyridin-3-yl)amino)pyrimidin-2-yl)-3,3-dimethylpiperidin-4-ol or (S)-1-(4-((8-((2R,3S)-3-hydroxy-2-methylazetidin-1-yl)-5-isopropyl-2,7-naphthyridin-3-yl)amino)pyrimidin-2-yl)-3,3-dimethylpiperidin-4-ol] |
| > 50 nM | 30 to 100 nM |  | COC1CN(c2ccc([C@@H](C)CO)c3cc(Nc4ccnc(N5CC[C@@H](O)[C@@](C)(F)C5)n4)ncc23)C1 (single isomer, unassigned) [Example 180, (3S,4R)-3-fluoro-1-(4-((5-((R)-1-hydroxypropan-2-yl)-8-(3-methoxyazetidin-1-yl)isoquinolin-3-yl)amino)pyrimidin-2-yl)-3-methylpiperidin-4-ol or (3S,4R)-3-fluoro-1-(4-((5-((S)-1-hydroxypropan-2-yl)-8-(3-methoxyazetidin-1-yl)isoquinolin-3-yl)amino)pyrimidin-2-yl)-3-methylpiperidin-4-ol] |
| 30 to 50 nM | < 15 nM |  | CO[C@@H]1CCN(c2nccc(Nc3cc4c(C(C)C)ccc(N5CC6(CCS6(=O)=O)C5)c4cn3)n2)C[C@@H]1O (single isomer, unassigned) [Example 125, 6-(3-((2-((3S,4R)-3-hydroxy-4-methoxypiperidin-1-yl)pyrimidin-4-yl)amino)-5-isopropylisoquinolin-8-yl)-1-thia-6-azaspiro[3.3]heptane 1,1-dioxide or 6-(3-((2-((3R,4S)-3-hydroxy-4-methoxypiperidin-1-yl)pyrimidin-4-yl)amino)-5-isopropylisoquinolin-8-yl)-1-thia-6-azaspiro[3.3]heptane 1,1-dioxide] |
| 30 to 50 nM | < 15 nM |  | CC(C)c1cnc(N2CC(S(C)(=O)=O)C2)c2cnc(Nc3ccnc(N4CC[C@@H](O)[C@@](C)(F)C4)n3)cc12 [Example 69, (3S,4R)-3-fluoro-1-(4-((5-isopropyl-8-(3-(methylsulfonyl)azetidin-1-yl)-2,7-naphthyridin-3-yl)amino)pyrimidin-2-yl)-3-methylpiperidin-4-ol] |
| 20 to 30 nM |  | < 15 nM | C[C@H](c1cnc(N2CC[C@H]2C)c2cnc(Nc3ccnc(N4CC[C@@H](O)[C@@](C)(F)C4)n3)cc12)C1COC1 (single isomer, unassigned) [Example 177, (3S,4R)-3-fluoro-3-methyl-1-(4-((8-((R)-2-methylazetidin-1-yl)-5-((S)-1-(oxetan-3-yl)ethyl)-2,7-naphthyridin-3-yl)amino)pyrimidin-2-yl)piperidin-4-ol or (3S,4R)-3-fluoro-3-methyl-1-(4-((8-((R)-2-methylazetidin-1-yl)-5-((R)-1-(oxetan-3-yl)ethyl)-2,7-naphthyridin-3-yl)amino)pyrimidin-2-yl)piperidin-4-ol] |
